Assay results from patent US20040086498A9, “Cancer therapy” (priority 1999, published 2004).

Assays:
EL-4 tumours = assay: Treatment of large established EL-4 tumours with CAM gene transfer, DMXAA/FAA or timed combination; assay type: in vivo, C57BL/6 mice; conditions: large EL-4 tumours 0.6-0.8 cm; systemic (i.p.) optimal dose monotherapy; over a period of 3 weeks
Protocol: Female C57BL/6 mice, 6-9 weeks old, were obtained from the Animal Resource Unit, School of Medicine and Health Science, University of Auckland, Auckland. The EL-4 thymic lymphoma and mouse Lewis lung carcinoma cells (LLC) (H-2b) were purchased from the American Type Culture Collection (Rockville, Md). These cell lines were cultured in vitro at 37° C. in DMEM medium (Gibco BRL), supplemented with 10% foetal calf serum, 50 U/ml penicillin/streptomycin, 2 mM L-glutamine, 1 mM pyruvate.
Experimental Tumour Model.
Administration FAA and DMXAA Analogues. FAA was gifted from the Department of Health & Human Services, Drug Synthesis & Chemistry laboratory, National Cancer Institute, Bethesda, USA. The sodium salt of DMXAA was synthesized in the Auckland Cancer Society Research Centre, School of Medicine and Health Science, University of Auckland. Solutions of FAA and DMXAA in 5% (w/v) sodium bicarbonate and water, respectively, were prepared fresh for each experiment and protected from light. FAA and DMXAA were injected i.p. at 300 mg/Kg and 25 mg/Kg of body weight in a volume of 0.01 ml/g body weight, respectively.
Gene Transfer of B7.1. […]

EL-4 target cells = assay: Measurement of anti-tumour CTL activity of splenocytes from treated mice; assay type: cell-based; conditions: 21 days following gene transfer; combinations versus B7.1 monotherapy
Protocol: Measurement of the Generation of Anti-Tumour CTL. Splenocytes were harvested 21, and 42 days following initial gene transfer, and 22 days following a parental tumour challenge. They were incubated at 37° C. with EL-4 target cells in graded E:T ratios in 96-well round-bottom plates. After a 4-hour incubation, 50 μl of supernatant was collected, and lysis was measured using the Cyto Tox 96 Assay Kit (Promega, Madison, Wis., USA). Background controls for non-specific target and effector cell lysis were included. After background subtraction, percentage of cell lysis was calculated using the formula: 100×(experimental-spontaneous effector-target spontaneous target/maximum target-spontaneous target).

established EL-4 tumours = assay: Adoptive transfer of anti-tumour splenocytes from treated mice; assay type: in vivo; conditions: 2×10^8 splenocytes from treated mice; recipients with EL-4 tumours up to 0.8 cm
Protocol: Adoptive Transfer of Anti-Tumour CTL. Adoptive transfer of anti-tumour splenocytes was as described previously (Kanwar et al, 1999). Briefly, splenocytes obtained from mice 21 days following therapy were resuspended in Hank's balanced salt solution containing 1% FCS, and stimulated with 5 μg/ml PHA and 100 U/ml recombinant mouse IL-2 for 4 to 5 days. Animals bearing tumours 0.6 cm in diameter received both intratumoral and i.p. injections of 2×10^8 cultured splenocytes.

EL-4 tumour sections = assay: In situ detection of apoptotic and necrotic cells (TUNEL / propidium iodide); assay type: in vivo, mice; conditions: tumour sections 7, 14, 21 days after treatment; TUNEL and PI
Protocol: In Situ Detection of Apoptotic Cells. Tumours were excised and immediately frozen in dry ice, stored at −70° C., and serial sections of 6 μm thickness prepared. TUNEL staining was performed using an In Situ apoptosis detection kit from Boehringer Mannheim, Germany. Briefly, frozen sections were fixed with paraformaldehyde solution (4% in PBS, pH 7.4), and permeabilized with a solution containing 0.1% Triton X-100 and 0.1% sodium citrate. After washing they were incubated with 20 μl TUNEL reagent for 60 min at 37° C., and examined by fluorescence microscopy. Some slides were counterstained with propidium iodide (PI; Sigma, Calif., USA) to distinguish necrotic cells from those undergoing apoptosis. Adjacent sections were counterstained with haematoxylin and eosin and mounted. The total number of apoptotic or necrotic cells were counted. The apototic index (AI) or necrotic index (NI) was calculated as follows: AI or NI=number of apoptotic or necrotic cells×100/total number of nucleated cells.

heat shock protein 70 = assay: Immunohistology of hsp70 expression in tumours; assay type: in vivo, mice; conditions: 7 days following administration
Protocol: Immunohistology. Tumours were excised on the seventh day following administration of therapeutic agents and controls, immediately frozen in dry ice, stored at −70° C. in isopentane, and sections of 10 μm thickness prepared. Sections were mounted on poly L-lysine-coated slides, and endogenous peroxidases blocked by incubating slides for 30 min in 0.3% H2O2 in methanol. Sections were stained with mouse anti-Hsp70 mAb (SPA-810 antibody; StressGen Biotechnologies Corp., Victoria, Canada) using a mouse-on-mouse immunodetection ABC Elite peroxidase kit (Vector Laboratories, Burlingame, Calif., USA). They were developed with SIGMA FAST DAB (3,3′-diaminobenzidine tetrahydrochloride) with metal enhancer CoCl2 tablets, and counterstained with haematoxylin and eosin. As a control, the primary antibody was substituted with rat IgG (Sigma, USA).

Cc1ccc2c(=O)c3cccc(CC(=O)O)c3oc2c1C [DMXAA, 5,6-dimethylxanthenone-4-acetic acid]
tumour diameter to which tumours shrank (EL-4 tumours): 0.1-0.2 cm
anti-tumour CTL activity of splenocytes (EL-4 target cells): very poor effectors
anti-tumour effect of adoptively transferred splenocytes (established EL-4 tumours): no detectable anti-tumour activity
apoptotic versus necrotic tumour cells (EL-4 tumour sections): predominance of necrotic cells
hsp70 expression in tumours (heat shock protein 70): consistently found upregulated on tumour cells either surrounding or within the vicinity of blood vessels

flavone acetic acid [FAA]
tumour diameter to which tumours shrank (EL-4 tumours): 0.2-0.4 cm
anti-tumour CTL activity of splenocytes (EL-4 target cells): very poor effectors
